Values quoted from earlier work in patent US9039924B2 (priority 2010, dated 2015).

Tested on: rat
Settings: in vivo; for LD50 values below 1000 or toxic: po

Compound | LD50 values below 1000 or toxic | LD50 (oral-rat; mg/kg)
O=N[O-].[K+] [KNO2, potassium nitrite] | below 1000 | 
N#C[O-].[K+] [KCNO, potassium cyanate] | below 1000 | 
potassium thiosulfate pentahydrate [K2S2O3•5H2O] | below 1000 | 802 mg/kg
potassium bromide [KBr] |  | 3070 mg/kg
potassium chloride [KCl] |  | 2600 mg/kg
potassium fluoride dihydrate [KF•2(H2O)] | below 1000 | 245 mg/kg
NC(N)=O [CO(NH2)2, urea] |  | 8471 mg/kg
O=NO [NaNO2, sodium nitrite] | below 1000 | 
N#CO [NaCNO, sodium cyanate] | below 1000 | 5 mg/kg
potassium iodide [KI] |  | 1862 mg/kg
ammonium thiocyanide [NH4CNS] | below 1000 | 954 mg/kg
O.O.O.O.O.O=S([O-])([O-])=S.[Na+].[Na+] [Na2S2O3•5H2O, sodium thiosulfate pentahydrate] |  | 2300 mg/kg
